Assays:
[1] = tested on: Mus musculus; experiment: Analgesic activity in albino mouse assessed as inhibition of abdominal convulsion at 10 mg/kg, po administered 1 hr prior to acetic acid challenge measured at 5 to 8 mins by acetic acid-induced writhing test relative to control; type: functional; details: Abdomen
[2] = tested on: Mus musculus; experiment: Analgesic activity in albino mouse assessed as protection against thermal-induced paw licking or jumping behaviour at 10 mg/kg, po administered 1 hr prior to testing by hot plate test relative to control; type: functional
[3] = Toxicity in po dosed albino mouse; type: organism-based; details: in vivo
[4] = tested on: Mus musculus; experiment: Analgesic activity in po dosed albino mouse assessed as protection against acetic acid-induced writhing administered 1 hr prior to prior to acetic acid challenge measured at 5 to 8 mins; type: functional

Structure (SMILES) | inhibition in vivo at 10 mg/kg [1] | Activity [2] | LD50 [3] | ED50 [4]
CC1=CC[C@@H]2[C@@H](O[C@H](c3cccc(Cl)c3)OC2(C)C)[C@@H]1O | 27% | 36% | – | –
CC1=CC[C@@H]2[C@@H](O[C@H](c3cccc(F)c3)OC2(C)C)[C@@H]1O | 40% | 0% | – | –
CC1=CC[C@@H]2[C@@H](O[C@H](c3ccc(Cl)c(Cl)c3)OC2(C)C)[C@@H]1O | 14% | 36% | – | –
CC1=CC[C@@H]2[C@@H](O[C@H](c3ccc([N+](=O)[O-])cc3)OC2(C)C)[C@@H]1O | 65% | 84% | – | –
CC1=CC[C@@H]2[C@@H](O[C@H](c3ccc(C(F)(F)F)cc3)OC2(C)C)[C@@H]1O | 52% | 30% | – | –
CC1=CC[C@@H]2[C@@H](O[C@H](c3ccc(F)cc3)OC2(C)C)[C@@H]1O | 40% | 0% | 1000 mg/kg | –
CC1=CC[C@@H]2[C@@H](O[C@H](c3ccc(Br)cc3)OC2(C)C)[C@@H]1O | 33% | 33% | – | –
CC1=CC[C@@H]2[C@@H](O[C@H](c3ccc(Cl)cc3)OC2(C)C)[C@@H]1O | 88% | 8% | – | 4.5 mg/kg
CC1=CC[C@@H]2[C@@H](O[C@H](c3cccc(Cl)c3)CC2(C)O)[C@@H]1O (mixture of isomers) | 26% | 14% | – | –
O=C([O-])Cc1ccccc1Nc1c(Cl)cccc1Cl.[Na+] [DICLOFENAC SODIUM] | 90% | 64% | – | 5 mg/kg

Reference: ChEMBL document CHEMBL2429714, “Synthesis and analgesic activity of monoterpenoid-derived 2-aryl-4,4,7-trimethyl-4a,5,8,8a-tetrahydro-4H-benzo[d][1,3]dioxin-8-ols” (Med Chem Res, 2013)
